Assay results reported in US10258633B2, “Treatment of fibrosis using FXR ligands” (Intercept Pharmaceuticals, Inc., priority 2004, dated 2019).

Assays:
[1] = tested on: hepatic stellate cells (HSC); test: Type I collagen α1 mRNA expression in HSCs by RT-PCR, quantitative RT-PCR and Northern blot; format: cell-based, rat; conditions: confirmed by Northern blot
Procedure: Primers: Rat SHP: [NT] (SEQ ID NO: 1) and [NT] (SEQ ID NO: 2); Rat FXR: [NT] (SEQ ID NO: 3) and [NT] […] (SEQ ID NO: 5) and [NT] (SEQ ID NO: 6); Rat c-Jun: [NT] (SEQ ID NO: 7) and 5' [NT] 3 (SEQ ID NO: 8)'; Rat JunD: [NT] (SEQ ID NO: 9) and [NT] […] (SEQ ID NO: 12). Levels of Collagen I alpha I were determined by Northern blot analyses of total RNA samples prepared from primary hepatic stellate cells (HSC), T6 and HepG2 cell lines. For this purpose, 10 μg total RNA was resolved by gel electrophoresis (1% agarose containing 0.98 M formaldehyde). Immediately after electrophoresis the RNA was transferred to a positively charged Nylon membrane (Amersham Life Sciences crop.). The transferred RNA was cross-linked to the membrane by UV light. The membrane was prehybridized for 4 hours in 6×SSC and 2% SDS and subsequently hybridized at 65° C. for 20 h with 32^P-labeled probes for collagen I alpha I or GAPDH (as internal control). Hybridized membranes were washed at a final stringency of 1×SSC, 1.0% SDS at 65° C. and exposed to Kodak AR-2 film at -80° C. The data are expressed relative to the internal GAPDH.

[2] = tested on: hepatic stellate cells (HSC); test: HSC proliferation assay ([3H]-thymidine incorporation, cell counting); format: cell-based, rat
[3] = tested on: BDL rats; test: Liver fibrosis in bile duct ligated (BDL) rats; format: in vivo, rat; conditions: 1 and 3 mg/kg/day by oral route
Procedure: BDL is a model of chronic cholestasis. In this model, however, progressive liver fibrosis leads to the development of cirrhosis 3-4 weeks after ligation and it is therefore also used as a model of liver fibrosis (Kountouras et al., Br. J. Exp. Pathol., 65: 305-311, 1984). Because this model allows us to test the effect of anti-fibrotic remedies, we administered rats […] with 6ECDCA at the dose of 1 and 3 mg/kg per os per day for 2 weeks. The protocol's study was approved by the Animal Study Committee of the University of Perugia. Hepatic fibrosis was induced in 8-9 weeks old male Wistar rats (Charles River, Monza, Italy) by BDL. BDL was performed as originally described by Kountouras et al. (Br. J. Exp. Pathol. 65: 305-311; 1984). One week after BDL, rats were randomized to receive one of the following treatments, placebo (subcutaneous injection of 100 μL PBS) or 6ECDCA at the doses 1 and 3 mg/kg/day by oral route. Animals were then followed for 3 weeks.
At the end of the study surviving rats were sacrificed under pentobarbital sodium anesthesia (50 mg/kg i.p) and terminally bled via cardiac puncture. The blood was centrifuged at 7250 g for 20 minutes at 4° C.; the resultant serum was stored at −20° C. until analysis (a maximum of 2 weeks). At the time of death, the bile duct ligature was confirmed to be intact with proximal dilatation of the common bile duct. After weight determination, specimens of livers were snap frozen in liquid nitrogen and stored at −70° C. for subsequent analysis. For histologic examination portions of the right and left liver lobes (10-15 mg/each) from each animal were fixed in 10% formalin, embedded in paraffin, sectioned, and stained with hematoxylin and eosin or Sirius red. For Sirius red staining, the sections were incubated for 30 minutes in 0.1% Sirius red F3B (Sigma Chemical Co.) containing saturated picric acid and 0.1% Fast Green. After rinsing twice with distilled water, sections were briefly dehydrated with 70% ethanol and coverslipped. Collagen surface density from liver samples was quantified using a computerized image analysis system as described previously (Image Acquisition System Ver. 005, Delta Sistemi, Rome, Italy). The surface density of collagen in blinded specimens was measured at a video screen display magnification according to the method described by Rockey and Chung (Rockey, D. C., Chung, J. J. J. Clin. Invest. 98: 1381-1388, 1996) and expressed as a percent (the ratio of collagen surface area per total analyzed field surface). The average of the score taken from 10 random fields was used to generate a single score for each animal's liver.

[4] = tested on: FXR; conditions: cell-free assay or cell-based transactivation assay using a human or rat FXR; cited from earlier work
[5] = tested on: hepatic stellate cells (HSC); test: Quantitative RT-PCR of FXR target genes (SHP, BSEP, NTCP, CYP7A1) in HSC

CC[C@H]1[C@@H](O)[C@@H]2[C@H](CC[C@]3(C)[C@@H]([C@H](C)CCC(=O)O)CC[C@@H]23)[C@@]2(C)CC[C@@H](O)C[C@@H]12 [6ECDCA]
expression of type I collagen (α1 mRNA) ([1]; 1 μM): reduces
liver collagen deposition by scoring of Sirius-red staining [3]: significant reduction
liver hydroxyproline content [3]: significant reduction
liver α1 mRNA by RT-PCR [3]: significant reduction
reduction in liver collagen content, quantitative analysis of Sirius Red stained collagen [3]: 62%
increase of BSEP mRNA ([5]; 6ECDCA 1 μM): 2 fold
increase of SHP mRNA ([5]; 6ECDCA 1 μM): 2 fold

C[C@H](CCC(=O)O)[C@H]1CC[C@H]2[C@@H]3[C@H](O)C[C@@H]4C[C@H](O)CC[C@]4(C)[C@H]3CC[C@]12C [CDCA, chenodeoxycholic acid, reference compound]
expression of type I collagen (α1 mRNA) ([1]; 20 μM): reduces
increase of BSEP mRNA ([5]; CDCA 20 μM): 2 fold
increase of SHP mRNA ([5]; CDCA 20 μM): 2 fold

CC(C)c1onc(-c2c(Cl)cccc2Cl)c1COc1ccc(/C=C/c2cccc(C(=O)O)c2)c(Cl)c1 [GW4064]
expression of type I collagen (α1 mRNA) ([1]; 100 μM): reduces
